The structures appear in SMILES notation. Some results are limits rather than exact numbers.

The test concerns the target T1, soluble guanylate cyclase (GUCYA3/GUCYB3) overexpressed in CHO cells (Homo sapiens, UniProt Q02108+Q02153).
T1 construct: expressed in transfected cells
T1 sequence (Q02108 1-690 partner): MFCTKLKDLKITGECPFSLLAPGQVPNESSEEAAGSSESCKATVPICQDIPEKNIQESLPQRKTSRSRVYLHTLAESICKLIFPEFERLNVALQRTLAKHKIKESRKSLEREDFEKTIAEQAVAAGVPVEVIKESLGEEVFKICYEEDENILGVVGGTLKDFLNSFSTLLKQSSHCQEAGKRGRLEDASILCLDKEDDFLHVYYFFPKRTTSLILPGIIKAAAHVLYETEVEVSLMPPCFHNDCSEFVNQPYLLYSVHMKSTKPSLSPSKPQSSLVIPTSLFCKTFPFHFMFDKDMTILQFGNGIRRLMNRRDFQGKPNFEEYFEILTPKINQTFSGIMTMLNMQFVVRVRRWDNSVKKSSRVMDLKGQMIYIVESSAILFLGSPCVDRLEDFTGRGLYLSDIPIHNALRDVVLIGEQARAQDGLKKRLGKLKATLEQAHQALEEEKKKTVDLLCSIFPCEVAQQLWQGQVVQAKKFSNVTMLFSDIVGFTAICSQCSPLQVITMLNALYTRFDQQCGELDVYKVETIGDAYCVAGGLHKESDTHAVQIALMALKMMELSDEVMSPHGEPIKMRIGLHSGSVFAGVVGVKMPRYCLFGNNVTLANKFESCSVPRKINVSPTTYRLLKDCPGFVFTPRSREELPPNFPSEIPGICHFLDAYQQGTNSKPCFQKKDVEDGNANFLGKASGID
T1 sequence (Q02153 1-619): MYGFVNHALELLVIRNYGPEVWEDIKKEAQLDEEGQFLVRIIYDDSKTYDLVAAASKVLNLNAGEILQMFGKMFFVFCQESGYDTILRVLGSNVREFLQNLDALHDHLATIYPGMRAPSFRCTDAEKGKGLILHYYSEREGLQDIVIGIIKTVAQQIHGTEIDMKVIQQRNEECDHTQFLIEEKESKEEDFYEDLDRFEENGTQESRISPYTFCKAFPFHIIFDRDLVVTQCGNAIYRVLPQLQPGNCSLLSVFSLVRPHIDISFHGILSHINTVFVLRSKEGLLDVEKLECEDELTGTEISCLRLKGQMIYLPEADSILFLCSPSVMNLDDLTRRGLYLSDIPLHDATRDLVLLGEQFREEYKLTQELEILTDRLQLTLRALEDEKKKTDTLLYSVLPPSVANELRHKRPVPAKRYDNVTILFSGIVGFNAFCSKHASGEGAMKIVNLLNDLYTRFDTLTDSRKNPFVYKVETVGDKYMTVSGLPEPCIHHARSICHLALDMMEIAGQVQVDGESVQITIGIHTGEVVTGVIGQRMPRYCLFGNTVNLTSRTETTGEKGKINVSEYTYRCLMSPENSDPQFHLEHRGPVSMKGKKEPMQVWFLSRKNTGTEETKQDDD
Nature of the test: CHO cellular assay (cGMP production, HTRF). Type of test: cell-based. The following applies: CHO GUCY clone 8E10; assay buffer with 1 mM IBMX, 20 uM ODQ; 1 h at room temperature; cGMP HTRF; quantification limit 0.0005 μM; read-out: Mean EC50. From the text: Chinese hamster ovary (CHO) cells overexpressing soluble guanylate cyclase were generated to test the effect of sGC activators in a cellular context. Human cDNAs for GUCYA3 (RefSeq: NM_000856.3) and GUCYB3 (RefSeq: NM_000857.1) were amplified by PCR from a HUVEC (Human Umbilical Vein Endothelial Cells) cDNA library and cloned into mammalian expression vectors. CHO K1 cells (ATCC CCL-61) were transfected using Lipofectamine 2000 following manufacturer's instructions and stably expressing clones were identified by antibiotic selection. CHO GUCY clone 8E10 was used for subsequent experiments.
Cells were seeded at a density of 3000 cells/well in white 384-well proxyplates (Perkin Elmer) and incubated overnight, then the medium was removed and cells were washed with assay buffer (HBSS, 0.1% BSA, 1 mM IBMX, 20 uM ODQ). sGC activators were serially diluted in DMSO, then diluted in assay buffer prior to adding to cells (10 ul/well, final DMSO concentration 0.5%). Cells were incubated with compounds for 1 h at room temperature, then assayed for cGMP production using Cisbio cGMP HTRF kit (62GM2PEC) according to manufacturer's instructions.
The EC50s are calculated based on the amount of cGMP interpolated from the standard curve, using a 4-parameter sigmoidal dose-response.
Compounds of invention are active on sGC activation. Data in Table 1 collected using the assay of Biological Example 1.
Take `CCc1nc(NC2CCc3cccc(-c4cccc(-n5ncc(C(=O)O)c5OC)c4)c32)ccc1C1=CCN(C(=O)[C@H](C)O)CC1` (single isomer, unassigned) [Example 11A, 1-(3-((S or R)-3-((2-Ethyl-1′-((S)-2-hydroxypropanoyl)-1′,2′,3′,6′-tetrahydro-[3,4′-bipyridin]-6-yl)amino)-2,3-dihydro-1H-inden-4-yl)phenyl)-5-methoxy-1H-pyrazole-4-carboxylic acid]: the EC50 was 36 nM. On to `CCc1nc(NC2CCc3cccc(-c4cccc(-n5ncc(C(=O)O)c5OC)c4)c32)ccc1C1=CCN(C(=O)[C@H](C)O)CC1` (single isomer, unassigned) [Example 11B, 1-(3-((R or S)-3-((2-ethyl-1′-((S)-2-hydroxypropanoyl)-1′,2′,3′,6′-tetrahydro-[3,4′-bipyridin]-6-yl)amino)-2,3-dihydro-1H-inden-4-yl)phenyl)-5-methoxy-1H-pyrazole-4-carboxylic acid], for which the EC50 was determined as 1.4 nM. Regarding `CCc1nc(NC2CCc3cccc(-c4cccc(-n5ncc(C(=O)O)c5OC)n4)c32)ccc1C1=CCN(C(=O)[C@H](C)O)CC1` (single isomer, unassigned) [Example 17A, 1-(6-((R or S)-3-((2-ethyl-1′-((S)-2-hydroxypropanoyl)-1′,2′,3′,6′-tetrahydro-[3,4′-bipyridin]-6-yl)amino)-2,3-dihydro-1H-inden-4-yl)pyridin-2-yl)-5-methoxy-1H-pyrazole-4-carboxylic acid], the EC50 turned out to be 71 nM.

Regarding `CCc1nc(NC2CCc3cccc(-c4cccc(-n5ncc(C(=O)O)c5OC)n4)c32)ccc1C1=CCN(C(=O)[C@H](C)O)CC1` (single isomer, unassigned) [Example 17B, 1-(6-((S or R)-3-((2-ethyl-1′-((S)-2-hydroxypropanoyl)-1′,2′,3′,6′-tetrahydro-[3,4′-bipyridin]-6-yl)amino)-2,3-dihydro-1H-inden-4-yl)pyridin-2-yl)-5-methoxy-1H-pyrazole-4-carboxylic acid], the EC50 is 3.5 nM. As to `CCc1cc(NC2CCc3cccc(-c4ccc(C)c(-n5ncc(C(=O)O)c5OC)c4)c32)ccc1C1CCN(C(=O)C2CC2)CC1` (single isomer, unassigned; (+)) [Example 7A, (+)-1-(5-(3-((4-(1-(Cyclopropanecarbonyl)piperidin-4-yl)-3-ethylphenyl)amino)-2,3-dihydro-1H-inden-4-yl)-2-methylphenyl)-5-methoxy-1H-pyrazole-4-carboxylic acid], the EC50 was under 0.5 nM. Consider `CCc1cc(NC2CCc3cccc(-c4ccc(OC)c(-n5ncc(C(=O)O)c5OC)c4)c32)ccc1C1CCN(C(=O)C2CC2)CC1` (single isomer, unassigned; (+)) [Example 8A, (+)-1-(5-(3-((4-(1-(Cyclopropanecarbonyl)piperidin-4-yl)-3-ethylphenyl)amino)-2,3-dihydro-1H-inden-4-yl)-2-methoxyphenyl)-5-methoxy-1H-pyrazole-4-carboxylic acid], for which the EC50 was under 0.5 nM.

In the case of `CCc1cc(NC2CCc3cccc(-c4cccc(-n5ncc(C(=O)O)c5N)c4)c32)ccc1C1CCN(C(=O)C2CC2)CC1` (single isomer, unassigned; (+)) [Example 9A, (+)-5-Amino-1-(3-(3-((4-(1-(cyclopropanecarbonyl)piperidin-4-yl)-3-ethylphenyl)amino)-2,3-dihydro-1H-inden-4-yl)phenyl)-1H-pyrazole-4-carboxylic acid], the EC50 is 4 nM. `CCc1nc(NC2CCc3cccc(-c4cccc(-n5ncc(C(=O)O)c5OC)c4)c32)ccc1C1=CCN(C(=O)C2CC2)CC1` (single isomer, unassigned; (+)) [Example 10A, (+)-1-(3-(3-((1′-(Cyclopropanecarbonyl)-2-ethyl-1′,2′,3′,6′-tetrahydro-[3,4′-bipyridin]-6-yl)amino)-2,3-dihydro-1H-inden-4-yl)phenyl)-5-methoxy-1H-pyrazole-4-carboxylic acid]: the EC50 was under 0.5 nM.

Values taken from patent US10316020B2, “Indane derivatives and the use thereof as soluble guanylate cyclase activators” (NOVARTIS AG, priority 2015, dated 2019).
